Measurements: patent publication US10512624B2, “Long-chain amphipathic dicarboxylic acids for treatment of diabetes type-1” (Syndromex Ltd., priority 2016, dated 2019)

Test system: NOD mice
Test: Prevention of overt type 1 diabetes (T1D) in NOD mice
Type: in vivo, mouse
Method: NOD/LtJ mice (Harlan Laboratories) were bred in-house under pathogen-free conditions. Female mice (3-week old) were fed ad libitum from weaning on with standard chow (Harlan Teklad 2018), or with MEDICA16αα diet (0.04% (w/w) MEDICA16αα mixed in Teklad 2018, yielding a dose of 40 mg MEDICA16αα per kg body weight per day). Mice were monitored weekly for body weight and food consumption. Tail vein blood glucose was verified weekly from week 10th on, on a set day and hour. Mice were considered diabetic if presenting non-fasting blood glucose levels >300 mg/dl for 3 consecutive days. Diabetic mice were euthanized, and blood and tissues were sampled for further studies.

CC(C)(CCCCCCCCCCCCC(C)(C)C(=O)O)C(=O)O [MEDICA16αα, 2,2,15,15-tetramethylhexadecane-1,16-dioic acid] was tested. Which “decrease in body weight gain” value (NOD mice, 40 mg/kg per day in feed) did it give?
Its value is 40%.

And the “NOD mice in which development of T1D was delayed or prevented” value (oral in feed 40 mg/kg per day from weaning, 21 weeks (until week 26), 32% in non-treated group)?
Its value is 71%.
